As usually defined, the IC50 is the concentration at which inhibition is half-maximal. The term EC50 denotes the concentration at which the effect is half-maximal. By AC50 is commonly meant the midpoint of the concentration-response curve, whichever way the signal moves.

Here are results for twelve compounds from ChEMBL document CHEMBL1201862, “PubChem BioAssay data set” (2004).

Active and inactive are the calls of the source.

The target in one assay is T1, Coagulation factor XII (Homo sapiens, UniProt P00748).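 Further: activated factor XIIa alpha cleaving a fluorogenic AMC peptide substrate; inhibitor potency from loss of enzyme activity.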
T1 sequence (P00748 whole entry): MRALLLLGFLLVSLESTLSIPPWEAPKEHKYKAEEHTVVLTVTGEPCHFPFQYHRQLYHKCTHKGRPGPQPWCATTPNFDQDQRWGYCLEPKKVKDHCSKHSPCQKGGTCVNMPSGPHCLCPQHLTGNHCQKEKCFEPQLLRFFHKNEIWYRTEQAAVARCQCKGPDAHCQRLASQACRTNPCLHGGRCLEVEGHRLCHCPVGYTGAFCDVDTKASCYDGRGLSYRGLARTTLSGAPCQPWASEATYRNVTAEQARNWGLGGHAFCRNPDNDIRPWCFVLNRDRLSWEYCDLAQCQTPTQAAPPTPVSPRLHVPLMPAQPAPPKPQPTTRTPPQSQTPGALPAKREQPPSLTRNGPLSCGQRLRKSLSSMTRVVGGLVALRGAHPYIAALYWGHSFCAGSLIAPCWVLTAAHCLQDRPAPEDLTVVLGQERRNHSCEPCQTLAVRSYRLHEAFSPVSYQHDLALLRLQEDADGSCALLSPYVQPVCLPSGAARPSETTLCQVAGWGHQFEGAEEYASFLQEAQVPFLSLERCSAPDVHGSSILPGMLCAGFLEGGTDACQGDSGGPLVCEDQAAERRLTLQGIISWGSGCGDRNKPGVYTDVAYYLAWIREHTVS
Format: functional.

Assay [1] deals with Glucose-6-phosphate 1-dehydrogenase (Homo sapiens, UniProt P11413). As to the kind of experiment: inhibition of Homo sapiens G6PD, dose series – biochemical, fluorescence, selectivity assay for P. falciparum G6PD inhibitor project, dose response (AID 504792). Format: functional.
In assay [2] the target is DNA dC->dU-editing enzyme APOBEC-3G (Homo sapiens, UniProt Q9HC16). Briefly: Dose Response confirmation of small molecule APOBEC3G DNA Deaminase Inhibitors via a fluorescence-based single-stranded DNA deaminase assay. [Related pubchem assays (depositor defined):AID493012, AID493028]. The assay is classed as functional.
Assay [3] concerns the target T2, Ubiquitin-conjugating enzyme E2 N (Homo sapiens, UniProt P61088).
T2 sequence (P61088 whole entry): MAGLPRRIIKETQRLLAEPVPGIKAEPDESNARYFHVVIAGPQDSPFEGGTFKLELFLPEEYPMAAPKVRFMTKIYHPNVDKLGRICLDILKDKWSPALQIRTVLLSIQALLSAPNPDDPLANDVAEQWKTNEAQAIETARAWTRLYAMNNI
The assay is classed as functional.

Assay [4] is described as follows: NIH-3T3 fibroblast cytotoxicity, dose response, cytotoxicity control, cell-based, fluorescence, Alamar Blue, secondary assay (AID 2327).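 Further: NIH-3T3 mouse fibroblasts cultured with fluconazole at 8 µg/mL.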 The assay is classed as functional. (In general: Resazurin is reduced to fluorescent resorufin, in cell work by metabolically active cells.)
In assay [5] the target is T2, Ubiquitin-conjugating enzyme E2 N. Format: functional. The source holds these as a separate data set.
Assay [6] in a line: fluconazole-exposed Candida albicans growth modulators – fluorescence, retest, confirmation (AID 2467). The assay is classed as functional, cell-based.
The target in assay [7] is ATP-dependent molecular chaperone HSP82 (Candida albicans (strain WO-1) (Yeast), UniProt C4YTQ8). As to the kind of experiment: steroid-induced GRE reporter decrease in yeast – S. cerevisiae, luminescence, Hsp90 inhibitor project, dose response (AID 2400).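 Further: beta-galactosidase luminescence from glucocorticoid response element reporter as proxy for Hsp90 function; inhibitor potency where signal loss means Hsp90 inhibition.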 Format: functional, cell-based.
For assay [8], the target named is T3, Serine/threonine-protein phosphatase (Candida dubliniensis (strain CD36 / CBS 7987 / NCPF 3949 / NRRLY-17841) (Yeast), UniProt B9W6M3).
T3 sequence (B9W6M3 whole entry): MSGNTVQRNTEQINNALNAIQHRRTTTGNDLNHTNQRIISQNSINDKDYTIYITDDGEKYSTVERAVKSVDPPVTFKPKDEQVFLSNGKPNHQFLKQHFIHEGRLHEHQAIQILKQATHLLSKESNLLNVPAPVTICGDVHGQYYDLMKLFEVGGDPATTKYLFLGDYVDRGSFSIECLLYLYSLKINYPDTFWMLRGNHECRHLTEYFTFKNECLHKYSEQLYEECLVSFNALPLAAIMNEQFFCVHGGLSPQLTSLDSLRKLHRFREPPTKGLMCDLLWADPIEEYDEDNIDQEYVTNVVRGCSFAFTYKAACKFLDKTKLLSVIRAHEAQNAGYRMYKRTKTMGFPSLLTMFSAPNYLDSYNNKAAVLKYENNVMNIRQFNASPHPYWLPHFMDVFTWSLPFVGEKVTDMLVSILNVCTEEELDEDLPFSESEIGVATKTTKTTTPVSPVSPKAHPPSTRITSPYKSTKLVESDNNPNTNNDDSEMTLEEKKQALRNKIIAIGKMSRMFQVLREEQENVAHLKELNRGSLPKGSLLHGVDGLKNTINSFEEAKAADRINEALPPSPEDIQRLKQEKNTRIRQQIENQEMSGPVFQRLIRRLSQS
As to the kind of experiment: blockers of CaCl2-induced CDRE-lacZ signaling – S. cerevisiae, luminescence, secondary, dose response (AID 2388).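 Further: yeast reporter cells carrying a calcineurin-responsive lacZ construct stimulated with calcium chloride; luminescent beta-galactosidase reporter signal in whole cells rather than isolated phosphatase activity; potency for inhibition where a drop in reporter signal means calcineurin blockade.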 The assay is classed as functional, cell-based.

In assay [9] the target is Heat shock protein HSP 90-alpha (Homo sapiens, UniProt P07900). The assay is classed as functional, organism-based.
The next assay deals with T4, Bcl-2-related protein A1 (Mus musculus, UniProt Q07440).
T4 sequence (Q07440 whole entry): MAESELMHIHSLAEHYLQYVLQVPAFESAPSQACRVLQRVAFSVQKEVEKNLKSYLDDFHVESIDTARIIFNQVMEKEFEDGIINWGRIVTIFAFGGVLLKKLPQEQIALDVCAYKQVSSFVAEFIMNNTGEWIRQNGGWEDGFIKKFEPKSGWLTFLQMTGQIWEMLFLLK
Format: functional.

Assay [10] addresses T5, Alkaline phosphatase, tissue-nonspecific isozyme (Homo sapiens, UniProt P05186).
T5 sequence (P05186 whole entry): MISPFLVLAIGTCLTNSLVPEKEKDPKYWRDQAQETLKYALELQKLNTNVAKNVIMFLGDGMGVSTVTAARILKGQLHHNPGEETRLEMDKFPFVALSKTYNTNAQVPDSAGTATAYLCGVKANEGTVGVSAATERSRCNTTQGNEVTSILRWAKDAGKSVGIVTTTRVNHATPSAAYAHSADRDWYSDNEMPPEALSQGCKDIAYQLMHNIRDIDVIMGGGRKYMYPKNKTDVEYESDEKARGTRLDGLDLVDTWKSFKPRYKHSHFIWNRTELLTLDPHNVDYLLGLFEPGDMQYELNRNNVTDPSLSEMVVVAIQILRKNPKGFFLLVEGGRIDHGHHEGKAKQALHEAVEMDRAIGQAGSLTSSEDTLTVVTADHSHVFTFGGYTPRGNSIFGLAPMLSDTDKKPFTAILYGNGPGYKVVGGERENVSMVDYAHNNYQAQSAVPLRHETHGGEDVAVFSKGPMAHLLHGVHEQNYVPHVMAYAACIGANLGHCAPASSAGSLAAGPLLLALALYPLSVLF
Briefly: potency against alkaline phosphatase TNAP – biochemical, luminescent, dose response, SAR follow-up (AID 1056).

The target in assay [11] is Glyceraldehyde-3-phosphate dehydrogenase (Homo sapiens, UniProt P04406).
In assay [12] the target is Delta-type opioid receptor (Homo sapiens, UniProt P41143). As to the kind of experiment: Counterscreen for agonists of heterodimerization of the mu 1 (OPRM1) and delta 1 (OPRD1) opioid receptors: Luminescence-based cell-based high throughput dose response assay to identify agonists of OPRD1 homodimerization. [Related pubchem assays (depositor defined):AID504326, AID504355, AID504692, AID504904, AID504905]. The assay is classed as functional. (The purpose of a counterscreen is to sort out artefacts and off-target activity.)

In another assay the target is Mu-type opioid receptor (Homo sapiens, UniProt P35372). As to the kind of experiment: Counterscreen for agonists of heterodimerization of the mu 1 (OPRM1) and delta 1 (OPRD1) opioid receptors: Luminescence-based cell-based high throughput dose response assay to identify agonists of OPRM1 homodimerization. The assay is classed as functional.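 Further: U2OS cells expressing OPRM1 and beta-arrestin as split beta-galactosidase partners.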
Assay [13] deals with 5-hydroxytryptamine receptor 5A (Homo sapiens, UniProt P47898). As to the kind of experiment: Counterscreen for agonists of OPRM1-OPRD1 heterodimerization: luminescence-based cell-based high throughput dose response assay to identify agonists of 5-hydroxytryptamine (serotonin) 5A receptor (HTR5A). [Related pubchem assays (depositor defined):AID504326, AID504355, AID504692, AID504904, AID504905]. Format: functional.

The target of another assay is Large T antigen (Simian virus 40, UniProt P03070). Format: functional, Betapolyomavirus macacae.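 Further: Confirmatory-stage PubChem screen for compounds that inhibit SV40 T antigen.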
In assay [14] the test system is HEK293. Briefly: cells. Format: functional, cell-based. To be noted: Homo sapiens.
The test system of assay [15] is HEK293. As to the kind of experiment: inhibition of NOD1-driven NF-kB reporter – cell-based, luminescence, uHTS, primary screen (AID 1578). To be noted: Homo sapiens. The assay is classed as functional.
The subject of assay [16] is HEK293. As to the kind of experiment: NOD2 signaling inhibitors in MDP-stimulated cells, cell-based, uHTS, luminescence (AID 2001). Format: functional. To be noted: Homo sapiens.
Assay [17] concerns the target FAD-linked sulfhydryl oxidase ALR (Homo sapiens, UniProt P55789). As to the kind of experiment: ALR-catalysed DTT oxidation blockers – biochemical, H2O2 detection, luminescence, cherry-pick, dose response (AID 493248).
For another assay, the target named is Genome polyprotein (dengue virus type 2, UniProt P29990). As to the kind of experiment: flavivirus cap methylation enzyme inhibition – biochemical, confirmation dose response, primary screen (AID 588689). Format: functional.
Assay [18] has as its target DNA dC->dU-editing enzyme APOBEC-3A (Homo sapiens, UniProt P31941). Briefly: A3A deaminase inhibition for selectivity – biochemical, dose response (AID 504722). Format: functional.
For assay [19], the target named is T6, Rac GTPase-activating protein 1 (Homo sapiens, UniProt Q9H0H5).
T6 sequence (Q9H0H5 whole entry): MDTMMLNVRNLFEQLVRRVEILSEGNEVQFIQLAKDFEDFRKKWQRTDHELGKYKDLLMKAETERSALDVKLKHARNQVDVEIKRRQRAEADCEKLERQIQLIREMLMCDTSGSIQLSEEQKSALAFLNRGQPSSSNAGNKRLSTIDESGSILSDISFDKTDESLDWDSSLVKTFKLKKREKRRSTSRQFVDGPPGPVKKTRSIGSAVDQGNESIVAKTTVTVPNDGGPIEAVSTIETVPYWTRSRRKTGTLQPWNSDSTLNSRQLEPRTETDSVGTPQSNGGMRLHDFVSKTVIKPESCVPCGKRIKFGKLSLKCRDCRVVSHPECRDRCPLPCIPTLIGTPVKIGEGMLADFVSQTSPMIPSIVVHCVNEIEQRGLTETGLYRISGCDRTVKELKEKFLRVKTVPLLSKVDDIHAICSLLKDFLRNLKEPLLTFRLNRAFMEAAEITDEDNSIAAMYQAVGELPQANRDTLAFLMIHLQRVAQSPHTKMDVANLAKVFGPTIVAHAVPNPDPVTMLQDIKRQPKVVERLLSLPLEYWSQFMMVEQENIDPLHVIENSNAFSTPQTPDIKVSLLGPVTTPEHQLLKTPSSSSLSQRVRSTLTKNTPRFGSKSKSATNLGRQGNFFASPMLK
As to the kind of experiment: blockers of MgcRacGAP-driven Rac1 GTP hydrolysis – biochemical, ADP Hunter fluorescence, primary and confirmatory, confirmation (AID 624330). The assay is classed as functional.

DNA dC->dU-editing enzyme APOBEC-3G, sequence (Q9HC16 whole entry): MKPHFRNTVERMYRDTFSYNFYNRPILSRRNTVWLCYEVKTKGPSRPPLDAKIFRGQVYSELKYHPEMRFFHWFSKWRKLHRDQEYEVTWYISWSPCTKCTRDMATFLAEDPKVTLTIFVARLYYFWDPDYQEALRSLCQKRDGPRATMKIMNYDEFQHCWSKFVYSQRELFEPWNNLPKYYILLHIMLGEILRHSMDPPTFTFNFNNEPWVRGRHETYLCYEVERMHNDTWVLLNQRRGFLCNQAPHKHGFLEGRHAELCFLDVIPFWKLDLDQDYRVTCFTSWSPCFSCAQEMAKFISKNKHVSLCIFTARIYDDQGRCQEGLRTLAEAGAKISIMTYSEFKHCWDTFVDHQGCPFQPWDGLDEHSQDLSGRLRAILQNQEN
Glucose-6-phosphate 1-dehydrogenase, sequence (P11413 whole entry): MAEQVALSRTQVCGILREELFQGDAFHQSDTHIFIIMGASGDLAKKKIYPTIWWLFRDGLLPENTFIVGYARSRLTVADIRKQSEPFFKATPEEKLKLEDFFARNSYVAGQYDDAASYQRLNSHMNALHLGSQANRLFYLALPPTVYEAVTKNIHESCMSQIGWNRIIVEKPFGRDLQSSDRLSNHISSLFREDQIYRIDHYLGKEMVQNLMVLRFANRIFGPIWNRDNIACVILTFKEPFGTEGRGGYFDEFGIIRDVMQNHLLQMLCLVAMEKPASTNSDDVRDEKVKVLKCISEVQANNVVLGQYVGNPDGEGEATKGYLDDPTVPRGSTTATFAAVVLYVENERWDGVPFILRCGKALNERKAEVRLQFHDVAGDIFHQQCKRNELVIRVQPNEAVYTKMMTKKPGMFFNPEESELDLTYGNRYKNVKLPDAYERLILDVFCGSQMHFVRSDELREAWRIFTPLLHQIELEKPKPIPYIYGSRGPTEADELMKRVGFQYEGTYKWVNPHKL
Large T antigen, sequence (P03070 whole entry): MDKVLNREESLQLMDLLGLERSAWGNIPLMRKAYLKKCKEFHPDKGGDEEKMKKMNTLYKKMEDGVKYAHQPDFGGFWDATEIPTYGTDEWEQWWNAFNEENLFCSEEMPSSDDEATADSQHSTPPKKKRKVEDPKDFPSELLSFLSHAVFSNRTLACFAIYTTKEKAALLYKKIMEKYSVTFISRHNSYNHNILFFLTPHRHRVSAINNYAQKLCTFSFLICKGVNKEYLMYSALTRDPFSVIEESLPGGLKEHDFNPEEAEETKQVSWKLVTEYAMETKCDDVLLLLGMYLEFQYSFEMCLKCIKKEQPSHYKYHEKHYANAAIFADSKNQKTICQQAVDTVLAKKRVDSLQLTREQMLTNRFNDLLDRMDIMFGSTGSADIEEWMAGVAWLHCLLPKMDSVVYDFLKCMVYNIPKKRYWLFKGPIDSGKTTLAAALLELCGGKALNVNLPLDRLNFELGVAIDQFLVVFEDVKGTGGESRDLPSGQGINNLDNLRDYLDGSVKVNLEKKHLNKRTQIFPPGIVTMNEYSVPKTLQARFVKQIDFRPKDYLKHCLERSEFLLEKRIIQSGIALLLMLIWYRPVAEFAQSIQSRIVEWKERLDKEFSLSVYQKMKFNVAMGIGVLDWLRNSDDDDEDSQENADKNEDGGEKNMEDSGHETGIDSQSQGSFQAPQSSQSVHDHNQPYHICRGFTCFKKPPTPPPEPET
Glyceraldehyde-3-phosphate dehydrogenase, sequence (P04406 whole entry): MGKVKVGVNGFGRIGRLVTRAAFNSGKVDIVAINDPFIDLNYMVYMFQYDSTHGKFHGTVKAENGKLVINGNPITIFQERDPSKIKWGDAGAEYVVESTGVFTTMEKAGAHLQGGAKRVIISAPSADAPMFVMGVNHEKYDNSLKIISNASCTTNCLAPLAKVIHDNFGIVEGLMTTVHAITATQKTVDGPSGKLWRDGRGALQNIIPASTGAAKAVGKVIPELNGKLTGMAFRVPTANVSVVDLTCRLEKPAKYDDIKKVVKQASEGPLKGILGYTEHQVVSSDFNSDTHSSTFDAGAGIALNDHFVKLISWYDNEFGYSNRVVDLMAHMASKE
5-hydroxytryptamine receptor 5A, sequence (P47898 whole entry): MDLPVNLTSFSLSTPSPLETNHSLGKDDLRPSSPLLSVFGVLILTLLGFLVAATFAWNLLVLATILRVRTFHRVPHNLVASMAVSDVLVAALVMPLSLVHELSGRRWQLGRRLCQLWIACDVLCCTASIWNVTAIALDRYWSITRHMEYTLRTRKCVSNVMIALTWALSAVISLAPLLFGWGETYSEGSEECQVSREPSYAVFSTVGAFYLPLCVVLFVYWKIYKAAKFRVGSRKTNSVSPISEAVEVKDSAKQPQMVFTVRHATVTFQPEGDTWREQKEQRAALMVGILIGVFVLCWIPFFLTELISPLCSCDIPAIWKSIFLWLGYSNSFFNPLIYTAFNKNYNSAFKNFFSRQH
Genome polyprotein, sequence (P29990 2492-3391 limits assumed): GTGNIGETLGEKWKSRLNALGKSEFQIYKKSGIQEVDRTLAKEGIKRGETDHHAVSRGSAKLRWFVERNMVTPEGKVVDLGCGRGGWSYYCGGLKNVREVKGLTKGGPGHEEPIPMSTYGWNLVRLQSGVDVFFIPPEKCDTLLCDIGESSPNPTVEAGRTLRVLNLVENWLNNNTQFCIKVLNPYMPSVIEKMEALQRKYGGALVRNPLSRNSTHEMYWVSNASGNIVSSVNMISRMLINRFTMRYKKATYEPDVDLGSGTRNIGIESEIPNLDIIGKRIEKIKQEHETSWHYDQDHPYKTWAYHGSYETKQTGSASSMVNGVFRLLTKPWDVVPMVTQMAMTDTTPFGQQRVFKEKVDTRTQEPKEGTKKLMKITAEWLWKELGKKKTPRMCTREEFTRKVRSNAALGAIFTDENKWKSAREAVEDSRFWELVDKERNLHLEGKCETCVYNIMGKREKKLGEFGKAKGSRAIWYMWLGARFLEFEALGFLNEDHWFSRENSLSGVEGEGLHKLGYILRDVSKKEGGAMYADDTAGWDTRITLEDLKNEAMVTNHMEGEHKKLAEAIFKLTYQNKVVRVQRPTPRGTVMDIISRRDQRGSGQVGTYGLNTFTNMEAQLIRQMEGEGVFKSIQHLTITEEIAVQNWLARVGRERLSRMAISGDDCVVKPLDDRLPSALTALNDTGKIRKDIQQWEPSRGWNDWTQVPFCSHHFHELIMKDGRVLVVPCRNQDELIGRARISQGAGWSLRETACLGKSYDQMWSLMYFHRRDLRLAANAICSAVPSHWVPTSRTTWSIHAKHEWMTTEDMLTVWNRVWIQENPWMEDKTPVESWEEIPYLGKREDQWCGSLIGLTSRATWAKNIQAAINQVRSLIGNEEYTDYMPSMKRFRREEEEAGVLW
DNA dC->dU-editing enzyme APOBEC-3A, sequence (P31941 whole entry): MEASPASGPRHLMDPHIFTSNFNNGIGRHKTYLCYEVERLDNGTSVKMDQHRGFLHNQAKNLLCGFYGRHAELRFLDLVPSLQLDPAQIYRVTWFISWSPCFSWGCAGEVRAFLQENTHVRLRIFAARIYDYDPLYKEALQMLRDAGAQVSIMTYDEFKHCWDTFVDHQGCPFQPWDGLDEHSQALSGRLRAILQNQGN
Mu-type opioid receptor, sequence (P35372 whole entry): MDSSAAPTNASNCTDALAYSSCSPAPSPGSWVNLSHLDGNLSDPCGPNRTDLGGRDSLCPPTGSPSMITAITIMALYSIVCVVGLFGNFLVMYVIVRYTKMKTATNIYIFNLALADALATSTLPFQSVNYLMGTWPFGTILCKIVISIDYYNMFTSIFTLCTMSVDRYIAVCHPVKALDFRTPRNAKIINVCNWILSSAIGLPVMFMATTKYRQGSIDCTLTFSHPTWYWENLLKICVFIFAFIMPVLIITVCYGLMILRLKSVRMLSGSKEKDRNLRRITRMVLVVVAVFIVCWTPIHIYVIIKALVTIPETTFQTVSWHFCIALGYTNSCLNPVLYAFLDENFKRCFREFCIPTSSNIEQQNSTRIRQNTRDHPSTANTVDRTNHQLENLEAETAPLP
FAD-linked sulfhydryl oxidase ALR, sequence (P55789 whole entry): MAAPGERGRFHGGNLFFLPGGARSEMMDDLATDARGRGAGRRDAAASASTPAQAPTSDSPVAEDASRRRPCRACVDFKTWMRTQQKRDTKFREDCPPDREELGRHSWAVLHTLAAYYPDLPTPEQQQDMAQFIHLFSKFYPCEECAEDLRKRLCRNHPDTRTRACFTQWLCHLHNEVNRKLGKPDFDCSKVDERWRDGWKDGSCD
ATP-dependent molecular chaperone HSP82, sequence (C4YTQ8 whole entry): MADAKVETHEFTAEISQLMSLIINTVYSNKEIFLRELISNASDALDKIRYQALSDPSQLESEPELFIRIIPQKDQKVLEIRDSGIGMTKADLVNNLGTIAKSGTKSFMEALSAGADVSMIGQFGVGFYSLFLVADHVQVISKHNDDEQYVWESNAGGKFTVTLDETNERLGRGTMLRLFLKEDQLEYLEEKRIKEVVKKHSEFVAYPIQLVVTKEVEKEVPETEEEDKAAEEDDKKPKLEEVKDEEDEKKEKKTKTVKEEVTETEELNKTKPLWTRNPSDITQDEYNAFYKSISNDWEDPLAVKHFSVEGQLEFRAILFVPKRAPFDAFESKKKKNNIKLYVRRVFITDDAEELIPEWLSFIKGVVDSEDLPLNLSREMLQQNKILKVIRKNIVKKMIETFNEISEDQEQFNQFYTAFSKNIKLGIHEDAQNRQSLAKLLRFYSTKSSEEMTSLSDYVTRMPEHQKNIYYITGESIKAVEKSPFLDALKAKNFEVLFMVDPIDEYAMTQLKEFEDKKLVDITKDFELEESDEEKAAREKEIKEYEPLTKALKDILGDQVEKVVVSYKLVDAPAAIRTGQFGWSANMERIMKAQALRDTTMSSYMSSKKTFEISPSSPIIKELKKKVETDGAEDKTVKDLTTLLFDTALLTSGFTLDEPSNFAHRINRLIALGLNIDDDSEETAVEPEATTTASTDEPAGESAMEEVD

In the case of `CSc1ccccc1C(=O)C1CCCN(S(=O)(=O)N(C)C)C1` (configuration not stated), the IC50 at Coagulation factor XII was > 50 µM (inactive).

`CCN(CC)c1ccc(NC(=O)c2cccc(C)c2)cc1S(=O)(=O)Nc1ccccc1OC`: the results for the IC50 in assay [1] and in [2] were > 80 µM (inactive) and 51.5 µM (active), respectively.

As to `O=C(CCCN1C(=O)c2cccc3cccc(c23)C1=O)NCc1cccnc1`, on Coagulation factor XII, the IC50 was > 50 µM (inactive).

With `Cc1ccc(OCC(=O)NNC(=S)NC(=O)C2CC2)c(C)c1`, the IC50 in assay [3] was 3.27 µM (active); in assay [5], 1.59 µM (active); on Bcl-2-related protein A1, > 20 µM (inactive). For the same compound, the EC50 was > 150 µM (inactive) in [4], 1.25 µM (active) in assay [6], 14.3 µM (active) in assay [7] and > 180 µM (inactive) in assay [8]. Besides, the AC50 in assay [9] is 4.32 µM (active).

`CCOc1ccc(S(=O)(=O)Nc2cnc3ccccc3c2)cc1`: the IC50 is > 100 µM (inactive) in assay [10] and > 100 µM (not active) in [11].

Regarding `CCOC(=O)C1(CCOc2ccccc2)CCN(Cc2ccc(C)s2)CC1`, the EC50 (in [12]; on Mu-type opioid receptor; in [13]) was > 92.5 µM (inactive) throughout.

With `COc1ccc(C2CC(=O)C(C(c3ccc(O)cc3)C3C(=O)CC(c4ccc(OC)cc4)CC3=O)C(=O)C2)cc1` (configuration not stated), the IC50 on Coagulation factor XII was > 50 µM (inactive); on Large T antigen, 37.3 µM (active).

Consider `COc1ccc(-c2oc3ncnc(N)c3c2-c2ccccc2)cc1`, for which the IC50 is 7.81 µM (active) in assay [3], 3.58 µM (active) in assay [5] and > 20 µM (inactive) at Bcl-2-related protein A1.

In the case of `COc1ccccc1NS(=O)(=O)c1cccc(NC(=O)c2ccc3ccccc3n2)c1`, the IC50 in the assay on HEK293 [14] was > 20 µM (inactive); in the assay with HEK293 [16] it was 7.38 µM (active). Also, the EC50 in the assay with HEK293 [15] is 6.61 µM (active).

As for `NS(=O)(=O)c1ccc(-c2ccc(C=C3C(=O)NC(=O)NC3=O)o2)cc1`, the figures for the IC50 (in assay [1]; at Genome polyprotein) were 27.4 µM (inactive) and > 100 µM (active), respectively. Also, in assay [17], the AC50 is 1.16 µM (active).

Turning to `COc1ccc(C(C)(C)C)cc1S(=O)(=O)Nc1cccnc1`, the IC50 in assay [10] was 26.4 µM (active).

For the compound `COc1ccc(/C=N/n2c(S)nnc2-c2[nH]nc3c2CCC3)cc1OC`, the results for the IC50 in assay [18], in assay [19] and in [2] were > 100 µM (inactive), 79.9 µM (active) and 2.49 µM (active), respectively.
